Measurements published in PubChem BioAssay (NCI).
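These data come from cells grown in 96-well plates and exposed to compound for 48 hours at five concentrations. GI50 = concentration required for 50% inhibition of growth. The concentration for full growth arrest is given as TGI.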

Experiments:
Assay in all cases: DTP human tumour cell line panel, 48 h
CCRF-CEM leukemia = system: CCRF-CEM leukemia
COLO 205 colon = system: COLO 205 colon
HL-60(TB) leukemia = system: HL-60(TB) leukemia
HOP-92 NSCLC = system: HOP-92 NSCLC
MOLT-4 leukemia = system: MOLT-4 leukemia
SK-MEL-28 melanoma = system: SK-MEL-28 melanoma
SK-OV-3 ovarian = system: SK-OV-3 ovarian
CAKI-1 renal = system: CAKI-1 renal

| Compound | GI50 (CCRF-CEM leukemia) | TGI (CCRF-CEM leukemia) | GI50 (COLO 205 colon) | TGI (COLO 205 colon) | GI50 (HL-60(TB) leukemia) | TGI (HL-60(TB) leukemia) | GI50 (HOP-92 NSCLC) | TGI (HOP-92 NSCLC) | GI50 (MOLT-4 leukemia) | TGI (MOLT-4 leukemia) | GI50 (SK-MEL-28 melanoma) | TGI (SK-MEL-28 melanoma) | GI50 (SK-OV-3 ovarian) | TGI (SK-OV-3 ovarian) | GI50 (CAKI-1 renal) | TGI (CAKI-1 renal) |
| --- | --- | --- | --- | --- | --- | --- | --- | --- | --- | --- | --- | --- | --- | --- | --- | --- |
| C=C1C(=O)O[C@H]2[C@H]1CC/C(COC(=O)NCc1c[nH]c3ccccc13)=C\CC[C@@]1(C)O[C@@H]21 | 1.48 µM | 8.27 µM | 1.81 µM | 3.58 µM | 1.54 µM | 4.22 µM | 1.51 µM | 4.31 µM | 2.71 µM | 9.13 µM | 2.65 µM | 8.99 µM | 13.7 µM | 26.6 µM | – | – |
| O=C(Nc1ccc(Cc2ccccc2)cc1)Nc1nn(C(=O)Nc2ccc(Cc3ccccc3)cc2)c2ccccc12 | – | – | > 100 µM | > 100 µM | > 100 µM | > 100 µM | 18 µM | > 100 µM | 63.2 µM | > 100 µM | > 100 µM | > 100 µM | > 100 µM | > 100 µM | > 100 µM | > 100 µM |
| CCCCN1CCCC[C@@H]1C(=O)N[C@H](C(=O)N(C)[C@H](C[C@@H](OC(C)=O)c1nc(C(=O)NC2CCC(C(=O)OC)CC2)cs1)C(C)C)C(C)C (some centres not stated) | 1.1 µM | > 25 µM | 1.26 µM | 11.5 µM | 0.732 µM | 2.17 µM | 1.13 µM | > 25 µM | 1.18 µM | > 25 µM | 17.9 µM | > 25 µM | 2.14 µM | > 25 µM | – | – |
| COc1cccc(/C=C/C(=O)c2ccc(SC)cc2)c1OC | 14.2 µM | 97.5 µM | 22.6 µM | 45 µM | – | – | 21.6 µM | 54.1 µM | 8.11 µM | 61.6 µM | 20 µM | 36.7 µM | 23.5 µM | 40.6 µM | 18.4 µM | 35.9 µM |
| O=c1c2ccc(S(=O)(=O)c3ccc4c(=O)n5c6ccccc6nc5c5cccc3c45)c3cccc(c32)c2nc3ccccc3n12 | – | – | – | > 100 µM | – | – | – | – | – | – | – | > 100 µM | – | 31.6 µM | – | > 100 µM |
| CC(=O)Nc1cc2cc(N)ccc2oc1=O | – | > 100 µM | – | > 100 µM | – | > 100 µM | – | > 100 µM | – | > 100 µM | – | > 100 µM | – | – | – | > 100 µM |
| NCCc1ccc(S(=O)(=O)F)cc1 | – | – | > 100 µM | > 100 µM | – | – | 32.9 µM | 96.2 µM | 32.2 µM | > 100 µM | > 100 µM | > 100 µM | > 100 µM | > 100 µM | 30.3 µM | > 100 µM |
| CSC(=NC#N)S/C=C/C(=O)c1ccccc1 | 1.77 µM | 15 µM | 35.2 µM | > 100 µM | – | – | 32.4 µM | > 100 µM | 22.6 µM | > 100 µM | 58 µM | > 100 µM | > 100 µM | > 100 µM | 16.6 µM | 37.2 µM |
| C=C(CN1CCN(c2ccc(C(F)(F)F)cc2)CC1)c1ccc(C(=O)Nc2ccccc2N)cc1 | – | – | > 100 µM | > 100 µM | 0.0732 µM | 0.279 µM | 3.95 µM | 23.7 µM | 0.153 µM | 1.06 µM | > 100 µM | > 100 µM | 12.1 µM | > 100 µM | 6.08 µM | 44 µM |
